The target in one series is TDP1 (Homo sapiens, UniProt Q9NUW8). Kind of series: TDP1 activity, real-time fluorescence biosensor assay. The series is classed as biochemical.
The nature of series [1]: Intrinsic cytotoxicity, EZ4U assay, HeLa. Conditions: human, HeLa cells, compound alone, 3 days. It counts as cell-based, human. On the procedure:
(§1) Next, we tested the compounds’ intrinsic toxicity against cervical cancer HeLa cells and non-cancerous HEK293A immortalized human embryonic kidney cells using the EZ4U assay format.
(§2) The cytotoxicity of the compounds to HeLa (human cervical cancer) and HEK293A (human embryonic kidney) cell lines was examined using the EZ4U Cell Proliferation and Cytotoxicity Assay (Biomedica, Vienna, Austria), according to the manufacturer’s protocols. The cells were grown in DMEM (Dulbecco’s Modified Eagle’s Medium) with 50 IU/mL penicillin, 50 μg/mL streptomycin (MP Biomedicals, Santa Ana, CA, USA), and 10% of fetal bovine serum (Biolot, St. Petersburg, Russia) in a 5% CO2 atmosphere. After formation of a 30–50%-monolayer, the tested compounds were added to the medium. The volume of the added reagents was 1/100 of the total volume of the culture medium, and the amount of DMSO (Sigma, St. Louis, MO, USA) was 1% of the final volume. The cell culture was monitored for 3 days. To assess the influence of the inhibitors on the cytotoxic effect of topotecan (Selleck Chemicals, Houston, TX, USA), 50% cytotoxic concentrations of topotecan and of each inhibitor were determined to attain a defined single-agent effect. Then, a minimum of two independent tests were performed with each inhibitor in combination with topotecan. When using a combination of drugs, TDP1 inhibitors were first added, then topotecan was added immediately (within 10–15 min).

Series [2] relates to HeLa cells. Put plainly: Intrinsic cytotoxicity, EZ4U assay, HeLa. It counts as cell-based, human. As to conditions: HeLa and HEK293A cells. The protocol: as §1, §2
Series [3] can be described thus: Intrinsic cytotoxicity, EZ4U assay, HEK293A. It counts as cell-based. Conditions: human, HEK293A cells, compound alone. The protocol:
as §1, §2

The subject of the next series is HEK293A cells. Put plainly: Influence of compounds on topotecan cytotoxicity, HEK293A. The series is classed as cell-based, human. On the procedure:
(§3) Then, we tested the ability of the adamantane–monoterpenoid derivatives to sensitize cells to the action of topotecan. For this, we chose a low-toxic concentration 20 μM and varied the concentrations of topotecan (Supplementary Figure S3).
(§4) In the reverse experiment, when the concentrations of the compounds were varied with 30 nM topotecan (in the experiments with HEK293A cells) or 3 μM topotecan (in the experiments with HeLa cells), respectively, a noticeable synergistic effect on HeLa cells was already observed at low concentrations of TDP1 inhibitors (1 and 5 μM) (Supplementary Figure S4). Given that the IC50 values for these compounds are >5 μM, this also indicates the presence of other targets in addition to TDP1.
as §2

Series [4] deals with HeLa cells. Kind of series: Combination index (CI) of topotecan and TDP1 inhibitors, CompuSyn. The series is classed as cell-based, human. On the procedure:
For HeLa cells, we calculated the combination index (CI), the parameter that is used to determine the degree of drug interaction. The combination index (CI) values for the different concentrations (Supplementary Figure S3) of topotecan and TDP1 inhibitors were less than one, and for some compounds less than 0.1 (Supplementary Table S1). This indicates a strong synergistic effect of topotecan and […]. The CI values were calculated with the CompuSyn version 1.0 software.
as §2

Series [5] relates to HeLa cells. Put plainly: Influence of compounds on topotecan cytotoxicity, HeLa. It counts as cell-based. Conditions: Homo sapiens, topotecan alone, read-out: Tpc CC50 HeLa. The protocol:
as §3, §4
The cytotoxicity of the compounds to HeLa (human cervical cancer) and HEK293A (human embryonic kidney) cell lines was examined using the EZ4U Cell Proliferation and Cytotoxicity Assay (Biomedica, Vienna, Austria), according to the manufacturer’s protocols. […] The cell culture was monitored for 3 days. To assess the influence of the inhibitors on the cytotoxic effect of topotecan (Selleck Chemicals, Houston, TX, USA), 50% cytotoxic concentrations of topotecan and of each inhibitor were determined to attain a defined single-agent effect. […]

Series [6] can be described thus: Influence of compounds on topotecan cytotoxicity, HEK293A. It counts as cell-based, human. As to conditions: human, HEK293A cells; topotecan alone; read-out: Tpc CC50 HEK293A. The protocol:
as §3, §4, §2

“Also recorded” adds a separate entry of the source.

Results on 7 molecules are retold here after paper PMC9182348, “Adamantane-Monoterpenoid Conjugates Linked via Heterocyclic Linkers Enhance the Cytotoxic Effect of Topotecan” (Molecules, 2022).

Sequence of TDP1 (Q9NUW8 whole entry): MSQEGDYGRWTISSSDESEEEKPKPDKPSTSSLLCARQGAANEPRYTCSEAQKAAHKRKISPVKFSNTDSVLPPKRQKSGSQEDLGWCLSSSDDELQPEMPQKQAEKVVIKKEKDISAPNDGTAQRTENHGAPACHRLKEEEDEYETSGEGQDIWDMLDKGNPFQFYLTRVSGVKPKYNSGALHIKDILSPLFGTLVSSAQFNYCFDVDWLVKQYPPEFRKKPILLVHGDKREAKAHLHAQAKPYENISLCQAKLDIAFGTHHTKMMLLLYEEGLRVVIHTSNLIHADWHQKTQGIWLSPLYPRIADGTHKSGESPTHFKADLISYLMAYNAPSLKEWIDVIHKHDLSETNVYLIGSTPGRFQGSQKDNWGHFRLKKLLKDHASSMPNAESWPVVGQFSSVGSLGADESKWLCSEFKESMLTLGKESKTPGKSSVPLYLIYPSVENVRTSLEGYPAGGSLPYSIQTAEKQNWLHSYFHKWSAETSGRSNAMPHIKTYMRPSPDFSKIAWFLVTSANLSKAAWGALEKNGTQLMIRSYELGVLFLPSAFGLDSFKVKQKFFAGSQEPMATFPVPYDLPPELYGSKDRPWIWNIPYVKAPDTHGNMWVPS

Consider `CC1=CC[C@H](CCSc2nc(C34CC5CC(CC(C5)C3)C4)n[nH]2)C1(C)C` [14a, 3-(Adamantan-1-yl)-5-((2-((R)-2,2,3-trimethylcyclopent-3-en-1-yl)ethyl)thio)-1H-1,2,4-triazole], for which the melting point came to 113.5 °C. The molecule also returned an IC50 against TDP1 of 5.5 ± 1.5 µM. In series [1], the CC50 at 3 days was 53 ± 8 µM. Further, the “intrinsic toxicity (in words)” value in the series on HeLa cells [2] was “moderate toxicity”. Besides, the CC50 at 3 days in series [3] was 47 ± 3 µM. In the series on HEK293A cells, the “effect on the action of topotecan on HEK293A cells (in words)” value is “protected HEK293A cells from the action of topotecan”. Besides, the Effect in the series on HeLa cells [4] (Tpc 0.3 µM + 20 µM compound) is recorded as 0.17. Besides, the Effect with HeLa cells [4] (Tpc 0.6 µM + 20 µM compound) came to 0.47. For the same molecule, in the series on HeLa cells [4] (Tpc 2.5 µM + 20 µM compound), the CI was 0.4461 and the Effect worked out at 0.92. Further, in the series on HeLa cells [4] (Tpc 5.0 µM + 20 µM compound), the CI is 0.7177 and the Effect worked out at 0.96. In the series with HeLa cells [4] (Tpc […] + 20 µM compound), the CI stood at 0.2872 and the Effect worked out at 0.81.

The molecule `CC1=CC[C@@H](CCSc2nc(C34CC5CC(CC(C5)C3)C4)n[nH]2)C1(C)C` [14b, 3-(Adamantan-1-yl)-5-((2-((S)-2,2,3-trimethylcyclopent-3-en-1-yl)ethyl)thio)-1H-1,2,4-triazole] displayed a melting point of 111.8 to 112.4 °C. The molecule further had a half-maximal inhibitory concentration (IC50) at TDP1 of 6.1 ± 0.1 µM. Moreover, the CC50 at 3 days in [1] is 54 ± 7 µM. In addition, in the series on HeLa cells [2], the “intrinsic toxicity (in words)” value was “moderate toxicity”. Also, the CC50 at 3 days in [3] stood at 50 ± 3 µM. Also, in the series on HeLa cells [4] (Tpc 0.3 µM + 20 µM compound), the CI worked out at 0.00419 and the Effect was 0.94. Besides, in the series with HeLa cells [4] (Tpc 0.5 µM + 20 µM compound), the CI stood at 0.00165 and the Effect was 0.97. Moreover, in the series with HeLa cells [4] (Tpc 1.0 µM + 20 µM compound), the CI came out at 0.00117 and the Effect stood at 0.98. For the same molecule, in the series with HeLa cells [4] (Tpc 2.0 µM + 20 µM compound), the CI came out at 0.00166 and the Effect is 0.98. In addition, in the series with HeLa cells [4] (Tpc 4.0 µM + 20 µM compound), the CI is on record as 0.00113 and the Effect was 0.99.

In the case of `CC1=CC[C@H](CC(=O)Nc2nnc(C34CC5CC(CC(C5)C3)C4)s2)C1(C)C` [15a, N-(5-(Adamantan-1-yl)-1,3,4-thiadiazol-2-yl)-2-((R)-2,2,3-trimethylcyclopent-3-en-1-yl)acetamide], the melting point was 209.2 to 210.1 °C. On TDP1, the IC50 was 6.1 ± 2.6 µM. The CC50 at 3 days in series [1] was greater than 100 µM. Besides, the CC50 at 3 days in series [3] was greater than 100 µM. For the same molecule, in the series with HeLa cells [4] (Tpc 0.3 µM + 50 µM compound), the Effect amounted to 0.27. In the series on HeLa cells [4] (Tpc 0.5 µM + 50 µM compound), the CI was 0.07887 and the Effect came to 0.53. Also, in the series with HeLa cells [4] (Tpc 1.0 µM + 50 µM compound), the CI amounted to 0.06365 and the Effect is 0.73. In the series on HeLa cells [4] (Tpc 2.0 µM + 50 µM compound), the CI was 0.06893 and the Effect was 0.83. For the same molecule, in the series on HeLa cells [4] (Tpc 4.0 µM + 50 µM compound), the CI is 0.07307 and the Effect is 0.9.

In turn, `CC1=CC[C@@H](CC(=O)Nc2nnc(C34CC5CC(CC(C5)C3)C4)s2)C1(C)C` [15b, N-(5-(Adamantan-1-yl)-1,3,4-thiadiazol-2-yl)-2-((S)-2,2,3-trimethylcyclopent-3-en-1-yl)acetamide] came in with a melting point of 210.9 °C. Also, at TDP1, the IC50 was roughly 5 µM. The CC50 at 3 days in series [1] was greater than 100 µM. Further, the CC50 at 3 days in [3] was greater than 100 µM. In addition, the “effect on the action of topotecan on HEK293A cells (in words)” value in the series on HEK293A cells was “protected HEK293A cells from the action of topotecan”. Moreover, in the series on HeLa cells [4] (Tpc 0.3 µM + 50 µM compound), the Effect was 0.48. Also, in the series with HeLa cells [4] (Tpc 0.5 µM + 50 µM compound), the CI worked out at 0.05563 and the Effect turned out to be 0.69. In the series with HeLa cells [4] (Tpc 1.0 µM + 50 µM compound), the CI is recorded as 0.04653 and the Effect amounted to 0.84. Besides, in the series with HeLa cells [4] (Tpc 2.0 µM + 50 µM compound), the CI is recorded as 0.05382 and the Effect amounted to 0.9. Moreover, in the series on HeLa cells [4] (Tpc 4.0 µM + 50 µM compound), the CI was 0.09564 and the Effect worked out at 0.91.

As for `CC[C@@]1(O)C(=O)OCc2c1cc1n(c2=O)Cc2cc3c(CN(C)C)c(O)ccc3nc2-1` [Tpc, topotecan], the CC50 with HeLa cells [5] worked out at 4 ± 1.3 µM. For the same molecule, the CC50 at 3 days in [6] amounted to 0.066 ± 0.028 µM.

`CC1(C)[C@@H]2CC[C@@]1(C(=O)Nc1nnc(C34CC5CC(CC(C5)C3)C4)s1)C(=O)C2` [compound 16, (1S,4R)-N-(5-(Adamantan-1-yl)-1,3,4-thiadiazol-2-yl)-7,7-dimethyl-2-oxobicyclo[2.2.1]heptane-1-carboxamide] came in with a melting point of 269.6 °C. Moreover, on TDP1, the IC50 was greater than 30 µM and the “anti-TDP1 activity (in words)” value is recorded as “not exhibiting anti-TDP1 activity; also recorded: ineffective”. Besides, the CC50 at 3 days in series [1] was 20 ± 8 µM. For the same molecule, in the series on HeLa cells [2], the “intrinsic toxicity (in words)” value was “moderate toxicity”. In addition, the CC50 at 3 days in series [3] was found to be 23 ± 10 µM. For the same molecule, the Effect in the series on HeLa cells [4] (Tpc 0.3 µM + 20 µM compound) is recorded as 0.035. Further, the Effect in the series on HeLa cells [4] (Tpc 0.6 µM + 20 µM compound) is 0.1. Besides, in the series on HeLa cells [4] (Tpc 2.5 µM + 20 µM compound), the CI came out at 0.5114 and the Effect stood at 0.75. Moreover, in the series with HeLa cells [4] (Tpc 5.0 µM + 20 µM compound), the CI came out at 0.8721 and the Effect is listed as 0.85. Moreover, in the series with HeLa cells [4] (Tpc […] + 20 µM compound), the Effect is listed as 0.36.

`CC1(C)[C@@H]2CC[C@@]1(CS(=O)(=O)Nc1nnc(C34CC5CC(CC(C5)C3)C4)s1)C(=O)C2` [compound 17, N-(5-(Adamantan-1-yl)-1,3,4-thiadiazol-2-yl)-1-((1S,4R)-7,7-dimethyl-2-oxobicyclo[2.2.1]heptan-1-yl)methanesulfonamide] gave a melting point of 200.3 to 200.5 °C. Besides, on TDP1, the IC50 is greater than 30 µM and the “anti-TDP1 activity (in words)” value is reported as “not exhibiting anti-TDP1 activity; also recorded: ineffective”. Also, the CC50 at 3 days in [1] was 100 ± 20 µM. For the same molecule, the CC50 at 3 days in [3] is greater than 100 µM. Besides, in the series with HeLa cells [4] (Tpc 0.3 µM + 20 µM compound), the Effect is 1.0E-4. Also, in the series with HeLa cells [4] (Tpc 0.6 µM + 20 µM compound), the Effect is 0.02. Further, in the series with HeLa cells [4] (Tpc 2.5 µM + 20 µM compound), the CI came out at 0.7924 and the Effect is 0.6. For the same molecule, in the series with HeLa cells [4] (Tpc 5.0 µM + 20 µM compound), the CI came out at 1.176 and the Effect was determined as 0.81. In addition, the Effect with HeLa cells [4] (Tpc […] + 20 µM compound) was found to be 0.25.
